Assay results taken from patent publication US10124035B2, “DISC-1 pathway activators in the control of neurogenesis” (Massachusetts Institute of Technology, priority 2008, dated 2018).
Entries after “also recorded” stand apart in the source; their conditions may differ.

System: TCF reporter in 293T cells
Experiment: TCF reporter activity in DISC1 knockdown 293T cells with Wnt3a conditional medium
Type: cell-based
Conditions: 16 hours
Experimental: Primary neural stem cells from E14 brains were infected with control or DISC1 shRNA lentiviruses. 48 hours after to transduction, cells were treated with vehicle or SB-216763 (5 μM) for 16 hours and then pulsed with 10 μM BrdU for 2 hours. Shown is percentage of GFP and BrdU double positive cells to total GFP positive cells (n=3, p<0.05). b. […] 1.5 μg of vector or WT-DISC1 was cotransfected with 0.5 μg control or DISC1 shRNA-2, 0.1 μg TCF reporter, and 10 ng pRL-TK vector into 293T cells. 48 hours after transfection, Wnt3a conditional medium with vehicle, SB-216763, or AR-A104418 was added for another 16 hours.
• Mice. Swiss Webster pregnant female mice were purchased from Taconic (Hudson, N.Y.). • Cell Culture. AHPs were kindly provided by Dr. Gage (Lie, D. C. et al. Wnt signaling to regulates adult hippocampal neurogenesis. Nature 437, 1370-5 (2005)) and cultured under conditions described previously (Palmer, T. D., Takahashi, J. & Gage, F. H. The adult rat hippocampus contains primordial neural stem cells. Mol Cell Neurosci 8, 389-404 (1997)). Primary neural progenitors were isolated from E14 mouse embryos and cultured as described previously (Sanada, K. & Tsai, L. H. G protein betagamma subunits and AGS3 control spindle orientation and asymmetric cell fate of cerebral cortical progenitors. Cell 122, 119-31 (2005)). N2a and 293T cells were cultured in DMEM medium containing 10% FBS, L-glutamine, and penicillin/streptomycin. Wnt3a expressing L cells and untransfected L cells were obtained from ATCC (Manassas, Va.). Wnt3a conditional medium was produced according to the ATCC protocol. To induce AHP differentiation, FGF2 was removed from the culture medium and 1 μM retinoic acid/1% FBS was added to the medium for 4 days. • Reagents. Recombinant Wnt3a protein was obtained from Chemicon (Rosemont, Ill.). FGF2 was obtained from PeproTech (Rocky Hill, N.J.). Recombinant GST-GSK3β was obtained from Active Motif (Carlsbad, Calif.). Recombinant GST-β-catenin and GST-axin were obtained from Millipore (Billerica, Mass.). […]

Cn1cc(C2=C(c3ccc(Cl)cc3Cl)C(=O)NC2=O)c2ccccc21 [SB-216763]
TCF reporter activity in DISC1 knockdown cells: rescued TCF activity in DISC1 knockdown cells to control levels; also recorded: rescues the TCF activation defect caused by DISC1 knockdown
